# Assay results reported in ChEMBL document CHEMBL1130455, “Synthesis and antirheumatic activity of novel tetrahydro-6-quinolineacetic acid derivatives” (1997).
# Tests used:
# Type in all cases: functional
# Mus musculus [1] = assay: Inhibitory effect on vascular permeability in mice [inhibitory rate of compound 100 mg/kg administered perorally]/[inhibitory rate of diclofenac-Na 25 mg/kg administered perorally]
# Rattus norvegicus [2] = assay: Bone damage score on day 27(the result of radiolgic analysis of non-injected paws on day 27) the bone destruction advances in the articular of adjuvant arthritic rat at a dose of 0.5 mg/kg
# Rattus norvegicus [3] = assay: Inhibitory effect on adjuvant arthritis in rats at a dose of 50 mg/kg (the value is obtained by comparison between the non-injected paw volumes of the arthritic and control)
# Rattus norvegicus [4] = assay: Inhibitory effect on adjuvant arthritis in rats at a dose of 100 mg/kg (the value is obtained by comparison between the non-injected paw volumes of the arthritic and control)
# Rattus norvegicus [5] = assay: Inhibitory effect on adjuvant arthritis in rats at a dose of 10 mg/kg (the value is obtained by comparison between the non-injected paw volumes of the arthritic and control)
# Mus musculus [6] = assay: Inhibitory effect on vascular permeability in mice [inhibitory rate of compound 50 mg/kg administered perorally]/[inhibitory rate of diclofenac-Na 25 mg/kg administered perorally]
# Rattus norvegicus [7] = assay: Inhibitory effect on adjuvant arthritis in rats at a dose of 25.0 mg/kg (the value is obtained by comparison between the non-injected paw volumes of the arthritic and control).; conditions: for inhibition in vivo at 25 mg/kg: Rattus norvegicus
# Rattus norvegicus [8] = assay: Inhibitory effect on adjuvant arthritis in rats at a dose of 12.5 mg/kg (the value is obtained by comparison between the non-injected paw volumes of the arthritic and control)
# Ovis aries = species on record: Ovis aries; assay: In vitro inhibitory effect of anti-sheep erythrocyte IgM antibody-producing cells, (value is obtained by the number of IgM-PFC in the tested group and that in the control) at a concentration of 2*10e-6M
# Rattus norvegicus [9] = assay: Inhibitory effect on adjuvant arthritis in rats at a dose of 12.5 mg/kg (the value is obtained by comparison between the non-injected paw volumes of the arthritic and control).
# Rattus norvegicus [10] = assay: Inhibitory effect on adjuvant arthritis in rats at a dose of 25 mg/kg (the value is obtained by comparison between the non-injected paw volumes of the arthritic and control).
# Rattus norvegicus [11] = assay: Inhibitory effect on adjuvant arthritis in rats at a dose of 25 mg/kg (the value is obtained by comparison between the non-injected paw volumes of the arthritic and control)
# Rattus norvegicus [12] = assay: Inhibitory effect on adjuvant arthritis in rats at a dose of 12.5 mg/kg, (the value is obtained by comparison between the non-injected paw volumes of the arthritic and control)
# Rattus norvegicus [13] = assay: Inhibitory effect on adjuvant arthritis in rats at a dose of 25 mg/kg, (the value is obtained by comparison between the non-injected paw volumes of the arthritic and control).
# Rattus norvegicus [14] = species on record: Rattus norvegicus; assay: The suppression of calcium release from bone stimulated with PTH in vitro at a concentration of 10.0 ug/mL expressed as percent inhibition of bone resorption
# Rattus norvegicus [15] = species on record: Rattus norvegicus; assay: The suppression of calcium release from bone stimulated with IL1-beta in vitro at a concentration of 2.0 ug/mL expressed as percent inhibition of bone resorption.
# Rattus norvegicus [16] = species on record: Rattus norvegicus; assay: The suppression of calcium release from bone stimulated with IL1-beta in vitro at a concentration of 10.0 ug/mL expressed as percent inhibition of bone resorption
# Rattus norvegicus [17] = assay: Bone damage score on day 27(the result of radiolgic analysis of non-injected paws on day 27) the bone destruction advances in the articular of adjuvant arthritic rat at a dose of 25 mg/kg
# Rattus norvegicus [18] = species on record: Rattus norvegicus; assay: The suppression of calcium release from bone stimulated with PTH in vitro at a concentration of 2.0 ug/mL expressed as percent inhibition of bone resorption.
# Rattus norvegicus [19] = species on record: Rattus norvegicus; assay: The suppression of calcium release from bone stimulated with IL1-beta in vitro at a concentration of 0.4 ug/mL expressed as percent inhibition of bone resorption
# Rattus norvegicus [20] = species on record: Rattus norvegicus; assay: The suppression of calcium release from bone stimulated with PTH in vitro at a concentration of 0.4 ug/mL expressed as percent inhibition of bone resorption.
# Rattus norvegicus [21] = assay: Inhibitory effect on adjuvant arthritis in rats at a dose of 6.3 mg/kg (the value is obtained by comparison between the non-injected paw volumes of the arthritic and control).
compound,measurement,setting,value
O=C(O)Cc1ccc2c(c1)CCCN2,inhibition ratio vs diclofenac,Mus musculus [1],1.06
O=C([O-])Cc1ccccc1Nc1c(Cl)cccc1Cl.[Na+] [DICLOFENAC SODIUM],Bone damage score,Rattus norvegicus [2],4.3
O=C(O)Cc1cc(Cl)c2c(c1)CCCN2,inhibition in vivo at 50 mg/kg,Rattus norvegicus [3],20%
same,inhibition ratio vs diclofenac,Mus musculus [1],1.44
same,inhibition in vivo at 100 mg/kg,Rattus norvegicus [4],55%
same,inhibition in vivo at 10 mg/kg,Rattus norvegicus [5],27%
O=C(O)Cc1cc(Cl)c2c(c1)CC[C@H](C(F)(F)F)N2,inhibition ratio vs diclofenac,Mus musculus [6],0.43
same,inhibition in vivo at 25 mg/kg,Rattus norvegicus [7],20%
same,inhibition ratio vs diclofenac,Mus musculus [1],1.5
same,inhibition in vivo at 12.5 mg/kg,Rattus norvegicus [8],3%
O=C(O)Cc1cc(Cl)c2c(c1)CCC(C(F)(F)F)N2 (stereo not given),inhibition ratio vs diclofenac,Mus musculus [6],0.99
same,Inhibition,Rattus norvegicus [7]; 25 mg/kg,46%
same,inhibition in vivo at 25 mg/kg,Rattus norvegicus [7],45%
same,inhibition ratio vs diclofenac,Mus musculus [1],1.48
same,Inhibition,Ovis aries,71%
same,inhibition in vivo at 12.5 mg/kg,Rattus norvegicus [9],36%
CCC1CCc2cc(CC(=O)O)cc(Cl)c2N1 (stereo not given),inhibition ratio vs diclofenac,Mus musculus [1],1.54
CCCC1CCc2cc(CC(=O)O)cc(Cl)c2N1 (stereo not given),inhibition ratio vs diclofenac,Mus musculus [1],1.59
same,inhibition in vivo at 12.5 mg/kg,Rattus norvegicus [9],32%
same,inhibition in vivo at 25 mg/kg,Rattus norvegicus [10],47%
O=C(O)Cc1cc(Cl)c2c(c1)CCC(c1ccccc1F)N2 (stereo not given),inhibition in vivo at 25 mg/kg,Rattus norvegicus [11],19%
same,inhibition in vivo at 50 mg/kg,Rattus norvegicus [3],52%
same,inhibition ratio vs diclofenac,Mus musculus [1],2.09
same,inhibition in vivo at 100 mg/kg,Rattus norvegicus [4],64%
CC1CCc2cc(CC(=O)O)cc(Cl)c2N1 (stereo not given),inhibition ratio vs diclofenac,Mus musculus [1],1.94
same,inhibition in vivo at 12.5 mg/kg,Rattus norvegicus [12],42%
same,inhibition in vivo at 25 mg/kg,Rattus norvegicus [13],56%
same,Inhibition,Ovis aries,60%
O=C(O)Cc1cc(Cl)c2c(c1)CCC(C(=O)O)N2 (stereo not given),inhibition ratio vs diclofenac,Mus musculus [1],0
CC1(C)CCc2cc(CC(=O)O)cc(Cl)c2N1,inhibition ratio vs diclofenac,Mus musculus [1],1.22
COc1ccc(C2CCc3cc(CC(=O)O)cc(Cl)c3N2)cc1 (stereo not given),inhibition ratio vs diclofenac,Mus musculus [1],0.62
CC(C)C1CCc2cc(CC(=O)O)cc(Cl)c2N1 (stereo not given),inhibition ratio vs diclofenac,Mus musculus [1],1.1
O=C(O)Cc1cc(Cl)c2c(c1)CC[C@@H](C(F)(F)F)N2,inhibition ratio vs diclofenac,Mus musculus [6],1.28
same,Inhibition,Rattus norvegicus [14],94%
same,Inhibition,Rattus norvegicus [15],78%
same,inhibition in vivo at 25 mg/kg,Rattus norvegicus [7],60%
same,Inhibition,Rattus norvegicus [16],97%
same,inhibition ratio vs diclofenac,Mus musculus [1],1.62
same,Bone damage score,Rattus norvegicus [17],2.5
same,inhibition in vivo at 12.5 mg/kg,Rattus norvegicus [9],34%
same,Inhibition,Rattus norvegicus [18],61%
same,Inhibition,Rattus norvegicus [19],24%
same,Inhibition,Rattus norvegicus [20],41%
same,inhibition in vivo at 6.3 mg/kg,Rattus norvegicus [21],25%
O=C(O)Cc1cc(Cl)c2c(c1)CCC(c1ccccc1)N2 (stereo not given),inhibition ratio vs diclofenac,Mus musculus [1],1.63
